“And” between values parts separate entries of the source, which are not always exact repeats. Identical values can stand only once.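 Five compound concentrations were applied to cells in 96-well plates for 48 hours; endpoints were derived by simple linear interpolation of the resulting dose-response curve. At the GI50, growth is halved. Definition used: TGI = concentration required for complete inhibition of growth.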

Our source for the GI50 and TGI values is PubChem BioAssay (NCI).

Some test systems named below: DU-145 prostate; HCT-15 colon; M14 melanoma; MDA-MB-231 breast; MOLT-4 leukemia; OVCAR-4 ovarian; OVCAR-8 ovarian; SK-MEL-28 melanoma; SNB-19 CNS; UACC-257 melanoma.
Common to all, as to assay: NCI-60 cell line screen, 48 h

For `CC(C)(C)c1cnc(CSc2cnc(NC(=O)C3CCNCC3)s2)o1`, the GI50 is 0.184 µM and 0.254 µM with DU-145 prostate; 4.76 µM and > 6.31 µM in the assay with HCT-15 colon; 0.441 µM and 0.564 µM with M14 melanoma; 0.214 µM and 0.234 µM in the assay with MDA-MB-231 breast; 0.351 µM and 0.248 µM in the assay with MOLT-4 leukemia; 0.273 µM and 0.281 µM in the assay with OVCAR-4 ovarian. The GI50 in the assay with OVCAR-8 ovarian was 0.307 µM and 0.365 µM; with SK-MEL-28 melanoma it was 0.166 µM and 0.221 µM; in the assay on SNB-19 CNS, 0.244 µM and 0.259 µM; in the assay with UACC-257 melanoma, 0.221 µM and 0.317 µM. For the same compound, the TGI is 5.53 µM and > 10 µM with DU-145 prostate; over 100 µM with HCT-15 colon; 2.87 µM and 2.61 µM in the assay with M14 melanoma; 5.34 µM and > 6.43 µM in the assay with MDA-MB-231 breast; 17.3 µM and > 2.99 µM with MOLT-4 leukemia; 2.67 µM and > 8.21 µM in the assay on OVCAR-4 ovarian. The TGI is 19.7 µM and > 10 µM in the assay on OVCAR-8 ovarian; 0.523 µM and 1.06 µM with SK-MEL-28 melanoma; over 100 µM in the assay with SNB-19 CNS; 0.634 µM and 1.74 µM in the assay on UACC-257 melanoma.

For the compound `Fc1nc(Sc2ncnc3nc[nH]c23)nc(-c2c3ccccc3c3sc4ccccc4n23)n1`, the TGI in the assay on DU-145 prostate, in the assay with HCT-15 colon, with M14 melanoma, in the assay on MDA-MB-231 breast, in the assay with MOLT-4 leukemia and with OVCAR-4 ovarian was over 100 µM in each case. Also, the TGI in the assay on OVCAR-8 ovarian, in the assay with SK-MEL-28 melanoma, in the assay with SNB-19 CNS and in the assay on UACC-257 melanoma was over 100 µM each time.

`CNc1ccc(CSc2ccc(C)cc2)cc1`: the GI50 with DU-145 prostate was 31 µM; with HCT-15 colon, 12.6 µM; in the assay with M14 melanoma, 13.6 µM; with MDA-MB-231 breast, 2.45 µM; with MOLT-4 leukemia, 2.22 µM; in the assay on OVCAR-4 ovarian, 7.44 µM. Besides, the GI50 with OVCAR-8 ovarian was 40.5 µM; in the assay with SK-MEL-28 melanoma, 20.3 µM; in the assay with SNB-19 CNS, 38.6 µM; in the assay with UACC-257 melanoma, 36.1 µM. Also, the TGI is over 100 µM in the assay with DU-145 prostate; 35.6 µM with HCT-15 colon; 32.6 µM in the assay on M14 melanoma; 11.7 µM in the assay on MDA-MB-231 breast; 29.3 µM with MOLT-4 leukemia; over 100 µM with OVCAR-4 ovarian. For the same compound, the TGI with OVCAR-8 ovarian, in the assay on SK-MEL-28 melanoma, with SNB-19 CNS and in the assay on UACC-257 melanoma was over 100 µM in each case.

Turning to `Cc1ncc([N+](=O)[O-])n1CCOc1ccc(C(=O)/C=C/c2ccc(C(F)(F)F)cc2)cc1`, the GI50 is 3.56 µM in the assay with DU-145 prostate; 1.82 µM in the assay with HCT-15 colon; 3.85 µM with M14 melanoma; 3.53 µM with MDA-MB-231 breast; 2.17 µM with MOLT-4 leukemia; 2.99 µM with OVCAR-4 ovarian. For the same compound, the GI50 in the assay with OVCAR-8 ovarian was 2.09 µM; in the assay with SK-MEL-28 melanoma, 10.2 µM; with SNB-19 CNS it was 3.34 µM; in the assay on UACC-257 melanoma, 3.6 µM. The TGI in the assay on DU-145 prostate is 11.9 µM; in the assay on HCT-15 colon, 4.09 µM; in the assay with M14 melanoma it was 14.8 µM; in the assay with MDA-MB-231 breast, 15.5 µM; in the assay with MOLT-4 leukemia, 6.29 µM; in the assay on OVCAR-4 ovarian, 14.6 µM. The TGI in the assay with OVCAR-8 ovarian was found to be 5.57 µM; in the assay with SK-MEL-28 melanoma it was 21.9 µM; in the assay with SNB-19 CNS, 15.7 µM; with UACC-257 melanoma it was 16.5 µM.

`CCCCCCC1CCCCN1C(c1ccccc1)C(O)c1ccccc1` (stereo not given): the GI50 in the assay with DU-145 prostate was 8.34 µM; in the assay with HCT-15 colon, 5.39 µM; in the assay on M14 melanoma it was 2.95 µM; with MDA-MB-231 breast, 6.79 µM; in the assay on MOLT-4 leukemia, 4.96 µM; in the assay on OVCAR-4 ovarian, 7.98 µM. For the same compound, the GI50 is 14.8 µM with OVCAR-8 ovarian, 9.99 µM in the assay with SK-MEL-28 melanoma, 15.1 µM in the assay with SNB-19 CNS and 4.79 µM in the assay with UACC-257 melanoma. Further, the TGI in the assay on DU-145 prostate amounted to 20.7 µM; with HCT-15 colon, 18.1 µM; with M14 melanoma, 11.4 µM; in the assay on MDA-MB-231 breast, 20.3 µM; in the assay on MOLT-4 leukemia it was 19.4 µM; in the assay on OVCAR-4 ovarian it was 21.7 µM. Further, the TGI in the assay on OVCAR-8 ovarian came out at 31.5 µM; in the assay on SK-MEL-28 melanoma, 22.1 µM; with SNB-19 CNS, 30 µM; with UACC-257 melanoma it was 18.1 µM.

Consider `COc1cc(/C=C/C(=O)/C=C/c2ccc(-n3ccnc3)cc2)ccc1O`, for which the GI50 in the assay on DU-145 prostate is 3.36 µM; in the assay with HCT-15 colon it was 2.48 µM; in the assay on M14 melanoma, 2.24 µM; with MDA-MB-231 breast, 3.47 µM; in the assay with MOLT-4 leukemia it was 3.22 µM; in the assay with OVCAR-4 ovarian, 8.38 µM. Also, the GI50 in the assay on OVCAR-8 ovarian was 3.58 µM; in the assay on SK-MEL-28 melanoma, 2.42 µM; in the assay on SNB-19 CNS, 4.37 µM; in the assay with UACC-257 melanoma, 3.21 µM. In addition, the TGI in the assay on DU-145 prostate came out at 10.1 µM; in the assay on HCT-15 colon, 6.89 µM; in the assay on M14 melanoma, 5.98 µM; in the assay on MDA-MB-231 breast, 13 µM; in the assay with MOLT-4 leukemia, 42.8 µM; in the assay on OVCAR-4 ovarian, 35.5 µM. The TGI in the assay with OVCAR-8 ovarian is over 100 µM; in the assay with SK-MEL-28 melanoma, 6.49 µM; with SNB-19 CNS, 47.7 µM; with UACC-257 melanoma, 11.5 µM.
